Measurements from patent publication US12122761B2, “2-azaspiro[3.4]octane derivatives as M4 agonists” (NOVARTIS AG, priority 2019, dated 2024).

Legend:
[1] = biological target: T1, human cloned CHRM4 receptor (M4_CHO cells) (Homo sapiens, UniProt P08173); test: CHRM4 Ca++ Flux Assay (agonist mode, FDSS 7000EX); assay type: cell-based; conditions: for M4 FDSS PA / Emax: Percent Activity; for EC50: geometric mean if tested more than once, read-out: M4 FDSS EC50; for Emax: read-out: M4 FDSS PA
T1 construct: expressed in transfected cells; host or cells: CHO-K1
T1 sequence (P08173 1-479): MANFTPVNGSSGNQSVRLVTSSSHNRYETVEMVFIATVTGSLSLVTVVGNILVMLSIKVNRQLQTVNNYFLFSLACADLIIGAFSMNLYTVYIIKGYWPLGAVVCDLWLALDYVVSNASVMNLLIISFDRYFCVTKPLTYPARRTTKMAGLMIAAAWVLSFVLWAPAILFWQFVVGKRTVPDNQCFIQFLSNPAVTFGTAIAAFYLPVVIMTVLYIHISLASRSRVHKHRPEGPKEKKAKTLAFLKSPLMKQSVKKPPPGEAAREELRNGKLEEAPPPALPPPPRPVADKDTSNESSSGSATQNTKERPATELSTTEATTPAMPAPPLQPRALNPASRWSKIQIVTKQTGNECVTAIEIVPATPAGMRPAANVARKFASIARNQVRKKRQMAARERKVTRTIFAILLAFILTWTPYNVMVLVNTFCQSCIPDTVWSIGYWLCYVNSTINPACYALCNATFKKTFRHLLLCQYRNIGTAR
Method in brief: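 Agonist-mode response was expressed as percent of the Carbachol EC100 and fitted with four-parameter nonlinear regression over an 11-point triplicate dose series. Intracellular Ca++ was tracked for 3 min by fluorescent dye in CHO-K1 cells stably expressing human CHRM4. Cells were preincubated 60 min with 20 μM ATP in buffer containing 2.5 mM probenecid.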

[2] = biological target: T2, Cloned human M1 receptor (CHRM1) stably expressed in HEK293 cells (Homo sapiens, UniProt P11229); test: CHRM1 Ca++ Flux Assay (agonist mode, FDSS 7000EX); assay type: cell-based; conditions: for M1 FDSS PA: Percent Activity; for EC50: geometric mean if tested more than once; for Emax: HEK293, Percent Activity, read-out: M1 FDSS PA
T2 construct: expressed in transfected cells; host or cells: HEK293
T2 sequence (P11229 1-460): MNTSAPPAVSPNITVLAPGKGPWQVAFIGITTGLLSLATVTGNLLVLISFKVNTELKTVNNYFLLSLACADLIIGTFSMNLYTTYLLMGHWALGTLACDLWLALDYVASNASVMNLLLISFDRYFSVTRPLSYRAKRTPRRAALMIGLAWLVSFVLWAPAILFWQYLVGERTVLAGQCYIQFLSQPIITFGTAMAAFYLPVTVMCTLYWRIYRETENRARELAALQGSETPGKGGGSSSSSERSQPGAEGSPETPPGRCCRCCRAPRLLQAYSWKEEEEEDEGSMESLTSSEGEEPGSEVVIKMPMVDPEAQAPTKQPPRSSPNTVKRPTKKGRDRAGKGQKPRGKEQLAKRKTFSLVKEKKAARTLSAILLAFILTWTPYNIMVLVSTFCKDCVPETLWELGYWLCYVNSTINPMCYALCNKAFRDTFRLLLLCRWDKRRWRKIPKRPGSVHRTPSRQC
Method in brief: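 Compounds tested as agonists at 11 concentrations in triplicate, with calcium traces captured over 3 minutes. Cells were HEK293 with stable human CHRM1 expression, plated overnight at 25K/well and loaded with calcium dye. Responses normalized to carbachol EC100 and fitted by four-parameter nonlinear regression.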

Compound	M4 FDSS PA [1]	EC50 [1]	M1 FDSS PA [2]	EC50 [2]	Emax [1]	Emax [2]
COc1ccccc1C1CCN([C@@H]2CCC3(C2)CN(c2nccnc2C(F)(F)F)C3)CC1 [Example 5I, (R)-6-(4-(2-methoxyphenyl)piperidin-1-yl)-2-(3-(trifluoromethyl)pyrazin-2-yl)-2-azaspiro[3.4]octane]	–	0.084 µM	–	0.272 µM	16%	55%
Cc1ncc(COc2ccccc2C2CCN([C@@H]3CCC4(C3)CN(C(=O)C3(F)CC3)C4)CC2)o1 (single isomer, unassigned) [Example 7V, (R)-(1-fluorocyclopropyl)(6-(4-(2-((2-methyloxazol-5-yl)methoxy)phenyl)piperidin-1-yl)-2-azaspiro[3.4]octan-2-yl)methanone or (S)-(1-fluorocyclopropyl)(6-(4-(2-((2-methyloxazol-5-yl)methoxy)phenyl)piperidin-1-yl)-2-azaspiro[3.4]octan-2-yl)methanone]	23%	0.353 µM	18%	2.3 µM	–	–
COc1ccccc1C1CCN([C@@H]2CCC3(C2)CN(c2nccnc2C)C3)CC1 [Example 5J, (R)-6-(4-(2-methoxyphenyl)piperidin-1-yl)-2-(3-methylpyrazin-2-yl)-2-azaspiro[3.4]octane]	–	0.009 µM	–	0.1 µM	60%	60%
Cc1nnc(COc2ccccc2C2CCN([C@@H]3CCC4(C3)CN(C(=O)C3(F)CC3)C4)CC2)o1 (single isomer, unassigned) [Example 7W, (R)-(1-fluorocyclopropyl)(6-(4-(2-((5-methyl-1,3,4-oxadiazol-2-yl)methoxy)phenyl)piperidin-1-yl)-2-azaspiro[3.4]octan-2-yl)methanone or (S)-(1-fluorocyclopropyl)(6-(4-(2-((5-methyl-1,3,4-oxadiazol-2-yl)methoxy)phenyl)piperidin-1-yl)-2-azaspiro[3.4]octan-2-yl)methanone]	67%	< 0.0004 µM	80%	0.002 µM	–	–
COc1ccccc1C1CCN([C@@H]2CCC3(C2)CN(c2cccnn2)C3)CC1 [Example 5O, (R)-6-(4-(2-methoxyphenyl)piperidin-1-yl)-2-(pyridazin-3-yl)-2-azaspiro[3.4]octane]	–	0.055 µM	–	1.34 µM	39%	27%
COc1ccc(Cl)cc1C1CCN([C@H]2CCC3(C2)CN(C(=O)C2(F)CC2)C3)CC1 (single isomer, unassigned) [Example 8A, (S)-(6-(4-(5-chloro-2-methoxyphenyl)piperidin-1-yl)-2-azaspiro[3.4]octan-2-yl)(1-fluorocyclopropyl)methanone or (R)-(6-(4-(5-chloro-2-methoxyphenyl)piperidin-1-yl)-2-azaspiro[3.4]octan-2-yl)(1-fluorocyclopropyl)methanone]	43%	0.036 µM	16%	0.438 µM	–	–
CC(C)(O)COc1ccccc1C1CCN([C@@H]2CCC3(C2)CN(c2cncnc2)C3)CC1 [Example 5B, (R)-2-methyl-1-(2-(1-(2-(pyrimidin-5-yl)-2-azaspiro[3.4]octan-6-yl)piperidin-4-yl)phenoxy)propan-2-ol]	–	0.004 µM	–	0.191 µM	53%	35%
COc1ccccc1C1CCN([C@@H]2CCC3(C2)CN(c2ccc(C)nc2)C3)CC1 [Example 5D, (R)-6-(4-(2-methoxyphenyl)piperidin-1-yl)-2-(6-methylpyridin-3-yl)-2-azaspiro[3.4]octane]	–	0.156 µM	–	> 25 µM	36%	0%
O=C(N1CC2(CC[C@@H](N3CCC(c4ccccc4OCC4CC4)CC3)C2)C1)C1(F)CC1 (single isomer, unassigned) [Example 7T, (R)-(6-(4-(2-(cyclopropylmethoxy)phenyl)piperidin-1-yl)-2-azaspiro[3.4]octan-2-yl)(1-fluorocyclopropyl)methanone or (R)-(6-(4-(2-(cyclopropylmethoxy)phenyl)piperidin-1-yl)-2-azaspiro[3.4]octan-2-yl)(1-fluorocyclopropyl)methanone]	5%	12.1 µM	32%	4.35 µM	–	–

The next lines start with the values.

M4 FDSS PA [1]	EC50 [1]	M1 FDSS PA [2]	EC50 [2]	Emax [1]	Emax [2]	Compound
51%	0.002 µM	9%	0.03 µM	–	–	O=C(N1CC2(CC[C@@H](N3CCC(c4cc(F)ccc4OC4CC5(COC5)C4)CC3)C2)C1)C1(F)CC1 (single isomer, unassigned) [Example 11B, (R)-(6-(4-(2-((2-oxaspiro[3.3]heptan-6-yl)oxy)-5-fluorophenyl)piperidin-1-yl)-2-azaspiro[3.4]octan-2-yl)(1-fluorocyclopropyl)methanone or (S)-(6-(4-(2-((2-oxaspiro[3.3]heptan-6-yl)oxy)-5-fluorophenyl)piperidin-1-yl)-2-azaspiro[3.4]octan-2-yl)(1-fluorocyclopropyl)methanone]
56%	0.005 µM	64%	0.063 µM	–	–	Fc1ccc(OC2CCOCC2)c(C2CCN([C@@H]3CCC4(C3)CN(c3cncnc3)C4)CC2)c1 (single isomer, unassigned) [Example 10G, (R)-6-(4-(5-fluoro-2-((tetrahydro-2H-pyran-4-yl)oxy)phenyl)piperidin-1-yl)-2-(pyrimidin-5-yl)-2-azaspiro[3.4]octane or (S)-6-(4-(5-fluoro-2-((tetrahydro-2H-pyran-4-yl)oxy)phenyl)piperidin-1-yl)-2-(pyrimidin-5-yl)-2-azaspiro[3.4]octane]
56%	0.001 µM	58%	0.036 µM	–	–	O=C(N1CC2(CC[C@@H](N3CCC(c4cc(F)ccc4C4CCOCC4)CC3)C2)C1)C1(F)CC1 (single isomer, unassigned) [Example 9K, (R)-(6-(4-(5-fluoro-2-(tetrahydro-2H-pyran-4-yl)phenyl)piperidin-1-yl)-2-azaspiro[3.4]octan-2-yl)(1-fluorocyclopropyl)methanone or (S)-(6-(4-(5-fluoro-2-(tetrahydro-2H-pyran-4-yl)phenyl)piperidin-1-yl)-2-azaspiro[3.4]octan-2-yl)(1-fluorocyclopropyl)methanone]
71%	0.0047 µM	0%	> 25 µM	–	–	Fc1ccc(OC2CC3(COC3)C2)c(C2CCN([C@@H]3CCC4(C3)CN(c3cncnc3)C4)CC2)c1 (single isomer, unassigned) [Example 10F, (R)-6-(4-(2-((2-oxaspiro[3.3]heptan-6-yl)oxy)-5-fluorophenyl)piperidin-1-yl)-2-(pyrimidin-5-yl)-2-azaspiro[3.4]octane or (S)-6-(4-(2-((2-oxaspiro[3.3]heptan-6-yl)oxy)-5-fluorophenyl)piperidin-1-yl)-2-(pyrimidin-5-yl)-2-azaspiro[3.4]octane]
57%	0.098 µM	50%	0.736 µM	–	–	FC(F)(F)Oc1ccccc1C1CCN([C@@H]2CCC3(C2)CN(c2ncco2)C3)CC1 (single isomer, unassigned) [Example 10L, (R)-2-(6-(4-(2-(trifluoromethoxy)phenyl)piperidin-1-yl)-2-azaspiro[3.4]octan-2-yl)oxazole or (S)-2-(6-(4-(2-(trifluoromethoxy)phenyl)piperidin-1-yl)-2-azaspiro[3.4]octan-2-yl)oxazole]
